{"source": "patent US4900672A", "about": "“Method for preservation of nitrile hydration activity” (Nitto Kagaku Kogyo Kabushiki Kaisha, priority 1986, dated 1990)", "key": {"[1]": {"target": "T1, nitrile hydratase (Pseudomonas chlororaphis, UniProt P27763+P27764)", "T1 sequence (P27764 1-200)": "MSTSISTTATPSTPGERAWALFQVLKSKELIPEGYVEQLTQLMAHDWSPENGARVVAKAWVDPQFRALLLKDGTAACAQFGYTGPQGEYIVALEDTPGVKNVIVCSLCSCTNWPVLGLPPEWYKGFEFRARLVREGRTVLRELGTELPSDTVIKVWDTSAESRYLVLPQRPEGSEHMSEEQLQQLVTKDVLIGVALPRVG", "T1 sequence (P27763 1-220)": "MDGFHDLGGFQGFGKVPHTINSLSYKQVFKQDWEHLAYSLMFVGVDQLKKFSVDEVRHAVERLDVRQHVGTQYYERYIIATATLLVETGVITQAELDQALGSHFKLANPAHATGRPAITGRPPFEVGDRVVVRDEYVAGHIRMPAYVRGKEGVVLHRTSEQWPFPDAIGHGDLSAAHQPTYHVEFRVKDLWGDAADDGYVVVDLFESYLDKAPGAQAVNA", "assay": "Preservation of nitrile hydration activity of cell extract (crude enzyme solution) left standing", "format": "biochemical, Pseudomonas chlororaphis B23 (FERM BP-187)", "conditions": "Table 6", "procedure": "The resultant cell suspension was pressed in a French press (fabricated by Ohtake Seisakusho, Japan) to crush cells under a pressure of 1,000 to 1,500 kg G and then subjected to centrifugation (12,000 rpm, 30 minutes) to remove uncrushed cells and insolubles such as cell walls, whereby a cell extract, i.e. a crude enzyme solution, was obtained.\nFor comparison purposes, a similar cell suspension (3.2×10^3 U/ml) which contained no ammonium isobutyrate was prepared and subjected to a French press treatment and centrifugation under similar conditions, whereby a control cell extract was obtained."}, "[2]": {"target": "T1, nitrile hydratase", "assay": "Preservation of nitrile hydration activity of polyacrylamide gel-immobilized cells left standing", "format": "cell-based, Pseudomonas chlororaphis B23 (FERM BP-187)", "conditions": "Table 7", "procedure": "40 ml of washed cells (water content 75%) prepared as in Example 1, 4.5 g of acrylamide, 0.5 g of N,N'-methylenebisacrylamide, and 40 ml of M/20 phosphate buffer (containing 10 g/l of ammonium isobutyrate, pH 6.0) were mixed to form a homogeneous suspension. To this suspension were added 5 ml of a 5% aqueous solution of dimethylaminopropionitrile and 10 ml of a 1% aqueous solution of potassium persulfate, and the mixture was maintained at 10° C. for 30 minutes to cause polymerization. A mass of cell-containing gel obtained was crushed into small particles, which were thoroughly washed with M/20 phosphate buffer containing 5 g/l of ammonium isobutyrate, pH 7.0, whereby approximately 90 g of immobilized cells were obtained.\nThe washed, immobilized cells thus obtained were placed in the same buffer containing 5 g/l of isobutyric acid and left standing at 0° C. for 5 days. […]\nThe nitrile hydration activity levels of the gel samples were measured as follows before and after the respective immobilized cells were left standing.\n1 g of immobilized gel was mixed with 5 g of acrylonitrile and 97 ml of M/20 phosphate buffer (pH 7.7), and the mixture was subjected to reaction at 0° C. for 20 minutes with stirring. The quantities of acrylamide in the respective reaction solutions were determined by gas chromatography."}, "[3]": {"target": "T1, nitrile hydratase", "assay": "Preservation of nitrile hydration activity of enzyme immobilized on DEAE-Cellulofine AM left standing", "format": "biochemical, Pseudomonas chlororaphis B23 (FERM BP-187)", "conditions": "Table 8", "procedure": "25 ml each of a cell extract containing ammonium isobutyrate and a control cell extract containing no ammonium isobutyrate prepared as in Example 95 and comparison Example 11 were mixed with 15 g each of DEAE-Cellulofine AM (supplied by Seikagaku Kogyo Co., Ltd., Japan) equilibrated with M/20 phosphate buffer (pH 7.7). The mixture was stirred at 0° C. for 90 minutes to immobilize the enzymes.\nThe results are presented in Table 8 in which the protein levels in the immobilized enzymes were determined in accordance with the procedure of Lowry et al."}}}
{"smiles": "CC(C)C(=O)O.N", "note": "[Ammonium Isobutyrate, ammonium isobutyrate]", "values": [{"measurement": "Activity Before Being Left Standing", "setting": "[1]; cell extract from suspension mixed 1:1 with buffer (pH 6.5) containing 10 g/l ammonium isobutyrate, control without: 2.7 × 10^3", "value": "2.9 × 10^3 U/ml"}, {"measurement": "Activity After Being Left Standing", "setting": "[1]; cell extract, 3 days ice-cooled, control without: 1.0 × 10^3", "value": "2.8 × 10^3 U/ml"}, {"measurement": "% Residual Activity", "setting": "[1]; cell extract, 3 days ice-cooled, control without: 38", "value": 94, "unit": "%"}, {"measurement": "Quant. of AA produced (%) after cells were left standing", "setting": "[2]; immobilized cells left standing at 0° C. for 5 days in buffer with 5 g/l stabilizer, control without: 0.52", "value": 0.93, "unit": "%"}, {"measurement": "Quant. of AA produced (%) before cells were left standing", "setting": "[2]; immobilized cells, 1 g gel + 5 g acrylonitrile, 0° C., 20 minutes, control without: 0.88", "value": 1.02, "unit": "%"}, {"measurement": "Activity Before Being Left Standing", "setting": "[3]; enzyme immobilized on DEAE-Cellulofine AM, control without: 4.6", "value": 19.4}, {"measurement": "Activity After Being Left Standing", "setting": "[3]; immobilized enzyme, 3 days ice-cooled, control without: 1.7", "value": 18.4}, {"measurement": "% Residual Activity", "setting": "[3]; immobilized enzyme, 3 days ice-cooled, control without: 37", "value": 95, "unit": "%"}]}
